Experimental findings from paper PMC8844822, “SARM1 is a multi-functional NAD(P)ase with prominent base exchange activity, all regulated bymultiple physiologically relevant NAD metabolites” (iScience, 2022) are described below.

One assay deals with T1, hCD38 (Homo sapiens, UniProt P28907).
T1 construct: a soluble fragment Val43-Ile300 with 6x-His tag at C terminus; 6xHis (C); purchased R&D Systems
T1 sequence (P28907 43-300): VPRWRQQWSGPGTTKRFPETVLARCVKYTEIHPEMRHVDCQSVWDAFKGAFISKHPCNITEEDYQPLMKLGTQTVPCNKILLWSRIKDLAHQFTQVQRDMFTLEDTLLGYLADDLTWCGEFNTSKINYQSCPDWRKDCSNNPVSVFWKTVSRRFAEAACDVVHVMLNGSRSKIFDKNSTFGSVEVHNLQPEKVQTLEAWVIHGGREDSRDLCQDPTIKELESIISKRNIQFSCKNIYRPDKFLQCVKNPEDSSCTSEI
Briefly: Base exchange reactions at neutral pH (HPLC). In kind it is biochemical.

A further assay has as its system DRG neurons. Briefly: Base exchange products in DRG explant cultures (metabolite extraction, HPLC). Particulars: 4 h; for SARM1 dependence of base exchange product formation: wild-type vs Sarm1^−/− DRG cultures. In kind it is cell-based, mouse. The method, then:
Dorsal Root Ganglia (DRG) were dissected from C57BL/6J (RRID IMSR_JAX:000664) or Sarm1^-/- (RRID MGI_3765957) E13.5-E14.5 mouse embryos. Explants were cultured in 35 mm tissue culture dishes pre-coated with poly-L-lysine (20 μg/ml for 1 h; Merck) and laminin (20 μg/ml for 1 h; Merck) in Dulbecco's Modified Eagle's Medium (DMEM, Gibco) with 1 % penicillin/streptomycin (Thermo Fisher Scientific), 33 ng/ml 2.5S NGF (Thermo Fisher Scientific) and 2% B27 (Gibco). 4 μM aphidicolin (Merck) was used to reduce proliferation and viability of small numbers of non-neuronal cells ([Loreto and Gilley, 2020]).
Wild-type and Sarm1^−/− DRG neurons were treated at DIV7 with 3-acetylpyridine (AcPyr) or vehicle (H2O), or with vacor or vehicle (H2O with 4% 1 N HCl). Proper drug concentrations and times of collection were determined first by dedicated experiments (see Figure 5A). At the indicated time-point, wild-type and Sarm1^−/− DRG whole explant cultures (typically 30-60 ganglia per condition) were collected, washed in ice-cold PBS and rapidly frozen in dry ice, and stored at −80°C until processed. Next extraction was carried out as reported by grinding in liquid N2, resuspending in HClO4 containing cAMP as internal standard for recovery calculations, sonicating, and neutralizing with K2CO3 ([Mori et al., 2014]). Next HPLC analyses to detect and measure the base exchange formed products, i.e. AcPyrAD or the vacorylated compound VAD, were carried out as described above in the paragraph “NADase assays”. In all samples, recovery yields from spiked cAMP were at least 96%. Furthermore, pellets after extraction of soluble nucleotides were treated as reported ([Mori et al., 2014]) to get reference protein contents to normalize the nucleotide levels. Protein concentrations were determined using the Bradford Reagent (Merck).

Assay [1] addresses T2, Aplysia californica ADP ribosyl cyclase (Aplysia californica, UniProt P29241).
T2 sequence (P29241 25-282): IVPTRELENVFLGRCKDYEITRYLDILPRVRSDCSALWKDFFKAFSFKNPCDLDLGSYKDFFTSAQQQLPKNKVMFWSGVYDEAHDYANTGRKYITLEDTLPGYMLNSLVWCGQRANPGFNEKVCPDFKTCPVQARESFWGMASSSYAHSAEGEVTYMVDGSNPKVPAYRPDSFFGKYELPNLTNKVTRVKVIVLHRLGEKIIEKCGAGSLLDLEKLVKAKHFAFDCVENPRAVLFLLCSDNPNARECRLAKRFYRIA
Briefly: Base exchange reactions at neutral pH (HPLC). In kind it is biochemical. Further details: purchased Merck A8950. As for the experimental part: Multiple time stops from individual assays as above were analyzed for linearity, then extents of hydrolysis (white bars), cyclization (red bars), or base exchange (black bars) were calculated from each corresponding product as shown in Figure 1B and STAR methods. […] See also Figures S3–S5, and Table S1
Rates were calculated as follows.

Where [2] appears, read: NAD […] alone or + AcPyr 2 mM / Vacor 0.5 mM / Na 2 mM.
Setting [3] is: NADP […] alone or + AcPyr 2 mM / Vacor 0.5 mM / Na 2 mM.

On to `CC(=O)c1cccnc1` [AcPyr, 3-acetylpyridine], for which the rate turned out to be 8284 ±992 mU/mg on hCD38 (setting [2]), 3255 ±787 mU/mg at hCD38 (setting [3]), 13996 ±624 mU/mg in assay [1] (setting [2]) and 15779 ±5215 mU/mg in assay [1] (setting [3]). In addition, the AcPyrAD formed in the assay on DRG neurons (wild-type DRGs, AcPyr 250 μM) is given as 0.446 ± 0.021 nmol per mg of protein. In addition, the “SARM1 dependence of base exchange product formation” value with DRG neurons is listed as “not in treated Sarm1^−/− cultures”.

For `O=C(NCc1cccnc1)Nc1ccc([N+](=O)[O-])cc1` [Vacor, 1-(4-nitrophenyl)-3-(pyridin-3-ylmethyl)urea], the rate is reported as 6818 ±1376 mU/mg on hCD38 (setting [2]), 3496 ±593 mU/mg on hCD38 (setting [3]), 12748 ±2593 mU/mg in assay [1] (setting [2]) and 8132 ±2201 mU/mg in assay [1] (setting [3]). In the assay on DRG neurons (wild-type DRGs, vacor 50 μM), the VAD formed is reported as around 0.14 nmol/mg. For the same compound, the “SARM1 dependence of base exchange product formation” value in the assay with DRG neurons was “found only in wild-type DRGs”.
